Counter-ions that a name gives are not always drawn.
Each compound was assayed on NQO1 specific enzyme activity in BEAS-2B cells (assay: BEAS-2B NQO1 MTT assay). Conditions: Homo sapiens, BEAS-2B, 48 h, NQO1 specific enzyme activity induction in BEAS-2B cells, 48 hours; read-out: EC50.
Type: cell-based
Excerpt: NAD(P)H:quinone oxidoreductase 1 (NQO1), also called DT diaphorase, is a homodimeric FAD-containing enzyme that catalyzes obligatory NAD(P)H-dependent two-electron reductions of quinones and protects cells against the toxic and neoplastic effects of free radicals and reactive oxygen species arising from one-electron reductions. The transcription of NQO1 is finely regulated by NRF2, and thus NQO1 activity is a good marker for NRF2 activation. On day one, frozen BEAS-2B cells (ATCC) are thawed in a water bath, counted, and re-suspended at a concentration of 250,000 cells/mL. Fifty microliters of cells are plated in 384 well black clear-bottomed plates. Plates are incubated at 37° C., 5% CO2 overnight. On day two, plates are centrifuged and 50 nL of compound or controls are added to the cells. Plates are then incubated at 37° C., 5% CO2 for 48 hours. On day four, medium is aspirated from the plate and crude cell lysates are made by adding 13 uL of 1× Cell Signaling Technologies lysis buffer with 1 Complete, Mini, EDTA-free Protease Inhibitor Tablet (Roche) for each 10 mL of lysis buffer. After lysis plates are incubated for 20 minutes at room temperature. Two microliters of lysate are removed for use in Cell Titer Glo assay (Promega) and MTT cocktail is prepared (Prochaska et. al. 1998) for measurement of NQO1 activity. Fifty microliters of MTT cocktail is added to each well, plate is centrifuged, and analyzed on an Envision plate reader (Perkin Elmer) using Absorbance 570 nm label for 30 minutes. Product formation is measured kinetically and the pEC50 of NQO1 specific activity induction is calculated by plotting the change in absorbance (Delta OD/min) versus the log of compound concentration followed by 3-parameter fitting.
EC50s<1 nM (+++++), EC50s 10 nM-1 nM (++++), EC50s 10-100 nM (+++), EC50s 100 nM-1 uM (++), EC50s 1 uM-10 uM (+), EC50s>10 uM (−), or were not determined (ND).

Question: Cc1c(C(CC(=O)O)c2ccc3c(c2)C2C(CCN2C(=O)OC(C)(C)C)C3)ccc2c1nnn2C (stereo not shown) [Example 6, 3-{1-[(tert-Butoxy)carbonyl]-1H,2H,3H,3aH,4H,8bH-indeno[1,2-b]pyrrol-7-yl}-3-(1,4-dimethyl-1H-1,2,3-benzotriazol-5-yl)propanoic Acid] was tested. Which EC50 did it give?
Answer: 100 to 1000 nM

Question: With CCn1nnc2c(C)c(C(CC(=O)O)c3ccc4c(c3)C3C(CCN3C(=O)OC(C)(C)C)C4)ccc21 (stereo not shown) [Example 16, 3-(1-(tert-Butoxycarbonyl)-1,2,3,3a,4,8b-hexahydroindeno[1,2-b]pyrrol-7-yl)-3-(1-ethyl-4-methyl-1H-benzo[d][1,2,3]triazol-5-yl)propanoic Acid] as the compound, how does the EC50 read?
Answer: 100 to 1000 nM

Question: Which EC50 does the source give for CC[C@@H]1CN([C@@H]2CCc3ccc([C@@H](c4ccc5c(nnn5C)c4C)C(C)(C)C(=O)O)cc32)Cc2cnccc2O1 (relative stereo) [Example 71, rel-(S)-3-(1,4-Dimethyl-1H-benzo[d][1,2,3]triazol-5-yl)-3-(rel-(R)-3-((R)-2-ethyl-2,3-dihydropyrido[3,4-f][1,4]oxazepin-4(5H)-yl)-2,3-dihydro-1H-inden-5-yl)-2,2-dimethylpropanoic acid] here?
Answer: 1 to 10 nM

Question: Which EC50 does the source give for CC[C@@H]1CN([C@@H]2CCc3ccc([C@H](CC(=O)O)c4ccc5c(nnn5C)c4C)cc32)Cc2ccccc2O1 (relative stereo) [Example 82, rel-(S)-3-(1,4-Dimethyl-1H-benzo[d][1,2,3]triazol-5-yl)-3-(rel-(R)-3-((R)-2-ethyl-2,3-dihydrobenzo[f][1,4]oxazepin-4(5H)-yl)-2,3-dihydro-1H-inden-5-yl)propanoic acid] here?
Answer: 10 to 100 nM

Question: Cc1c(C(CC(=O)O)c2ccc3c(c2)C(N2Cc4cc(C#N)ccc4OC(C)(C)C2)CC3)ccc2c1nnn2C (stereo not shown) [Example 28, 3-(3-(7-Cyano-2,2-dimethyl-2,3-dihydrobenzo[f][1,4]oxazepin-4(5H)-yl)-2,3-dihydro-1H-inden-5-yl)-3-(1,4-dimethyl-1H-benzo[d][1,2,3]triazol-5-yl)propanoic Acid, Formic Acid Salt] was tested. Which EC50 did it give?
Answer: < 1 nM

Question: For CCn1cc(CCC(CC(=O)O)c2ccc3c(c2)C2C(CCN2C(=O)OC(C)(C)C)C3)nn1 (stereo not shown) [Example 17, 3-(1-(tert-Butoxycarbonyl)-1,2,3,3a,4,8b-hexahydroindeno[1,2-b]pyrrol-7-yl)-5-(1-ethyl-1H-1,2,3-triazol-4-yl)pentanoic Acid], which EC50 is on record?
Answer: 1000 to 10000 nM

Question: For COc1ccc2c(c1)CN(C1CCc3ccc(C(CC(=O)O)c4ccc5c(nnn5C)c4C)cc31)CC(C)(C)O2 (stereo not shown) [Example 23, 3-(1,4-Dimethyl-1H-benzo[d][1,2,3]triazol-5-yl)-3-(3-(7-methoxy-2,2-dimethyl-2,3-dihydrobenzo[f][1,4]oxazepin-4(5H)-yl)-2,3-dihydro-1H-inden-5-yl)propanoic Acid], which EC50 is on record?
Answer: 1 to 10 nM

Question: With Cc1c(C(c2ccc3c(c2)C(N2Cc4ccccc4O[C@H](C)C2)CC3)C(C)(C)C(=O)O)ccc2c1nnn2C (stereo partly drawn) [Example 32, 3-(1,4-Dimethyl-1H-benzo[d][1,2,3]triazol-5-yl)-2,2-dimethyl-3-(3-((R)-2-methyl-2,3-dihydrobenzo[f][1,4]oxazepin-4(5H)-yl)-2,3-dihydro-1H-inden-5-yl)propanoic Acid, Formic Acid Salt] as the compound, how does the EC50 read?
Answer: 1 to 10 nM

Question: Which EC50 does the source give for Cc1c([C@H](c2ccc3c(c2)[C@H](N2Cc4cnccc4OC(C)(C)C2)CC3)C(C)(C)C(=O)O)ccc2c1nnn2C [Example 86, 3-(1,4-Dimethyl-1H-benzo[d][1,2,3]triazol-5-yl)-3-(3-(2,2-dimethyl-2,3-dihydropyrido[3,4-f][1,4]oxazepin-4(5H)-yl)-2,3-dihydro-1H-inden-5-yl)-2,2-dimethylpropanoic Acid] here?
Answer: < 1 nM

Question: How did the EC50 turn out when CCCc1cn(CCC(CC(=O)O)c2ccc3c(c2)C(N2Cc4ccccc4OC(C)(C)C2)CC3)nn1 (stereo not shown) [Example 63, 3-(3-(2,2-Dimethyl-2,3-dihydrobenzo[f][1,4]oxazepin-4(5H)-yl)-2,3-dihydro-1H-inden-5-yl)-5-(4-propyl-1H-1,2,3-triazol-1-yl)pentanoic Acid, Trifluoroacetic Acid Salt] was run?
Answer: 1000 to 10000 nM

Question: With CCCc1cn(CCC(c2ccc3c(c2)C(N2Cc4ccccc4OC(C)(C)C2)CC3)C(C)(C)C(=O)O)nn1 (stereo not shown) [Example 65, 3-(3-(2,2-Dimethyl-2,3-dihydrobenzo[f][1,4]oxazepin-4(5H)-yl)-2,3-dihydro-1H-inden-5-yl)-2,2-dimethyl-5-(4-propyl-1H-1,2,3-triazol-1-yl)pentanoic Acid, Trifluoroacetic Acid Salt] as the compound, how does the EC50 read?
Answer: 10 to 100 nM

Question: CCCC(C)C(=O)N1CCC2Cc3ccc(C(CC(=O)O)c4ccc5c(nnn5C)c4C)cc3C21 (stereo not shown) [Example 10, 3-(1,4-Dimethyl-1H-1,2,3-benzotriazol-5-yl)-3-[1-(2-methylpentanoyl)-1H,2H,3H,3aH,4H,8bH-indeno[1,2-b]pyrrol-7-yl]propanoic Acid] was tested. Which EC50 did it give?
Answer: 1000 to 10000 nM

Question: For CC[C@@H]1CN([C@H]2CCc3ccc([C@H](CC(=O)O)c4ccc5c(nnn5C)c4C)cc32)Cc2ccccc2O1 (relative stereo) [Example 81, rel-(S)-3-(1,4-Dimethyl-1H-benzo[d][1,2,3]triazol-5-yl)-3-(rel-(S)-3-((R)-2-ethyl-2,3-dihydrobenzo[f][1,4]oxazepin-4(5H)-yl)-2,3-dihydro-1H-inden-5-yl)propanoic Acid], which EC50 is on record?
Answer: 10 to 100 nM

Question: With Cc1c(C(c2ccc3c(c2)C(N2Cc4cccnc4O[C@H](C)C2)CC3)C(C)(C)C(=O)O)ccc2c1nnn2C (stereo partly drawn) [Example 42, 3-(1,4-Dimethyl-1H-benzo[d][1,2,3]triazol-5-yl)-2,2-dimethyl-3-(3-((R)-2-methyl-2,3-dihydropyrido[3,2-f][1,4]oxazepin-4(5H)-yl)-2,3-dihydro-1H-inden-5-yl)propanoic Acid, Formic Acid Salt] as the compound, how does the EC50 read?
Answer: 1 to 10 nM

Question: How did the EC50 turn out when Cc1c([C@H](c2ccc3c(c2)[C@@H](N2Cc4ccncc4OC(C)(C)C2)CC3)C(C)(C)C(=O)O)ccc2c1nnn2C (racemic) [Example 69, rac-(R)-3-(1,4--1H-benzo[d][1,2,3]triazol-5-yl)-3-(rac-(R)-3-(2,2-dimethyl-2,3-dihydropyrido[4,3-f][1,4]oxazepin-4(5H)-yl)-2,3-dihydro-1H-inden-5-yl)-2,2-dimethylpropanoic acid, Trifluoroacetic acid salt] was run?
Answer: < 1 nM

Question: For CC[C@@H]1CN(C2CCc3ccc(C(CC(=O)O)c4cc(OC)c5c(nnn5C)c4C)cc32)Cc2ccccc2O1 (stereo partly drawn) [Example 45, 3-(3-((R)-2-Ethyl-2,3-dihydrobenzo[f][1,4]oxazepin-4(5H)-yl)-2,3-dihydro-1H-inden-5-yl)-3-(7-methoxy-1,4-dimethyl-1H-benzo[d][1,2,3]triazol-5-yl)propanoic Acid, Formic Acid Salt], which EC50 is on record?
Answer: 10 to 100 nM

Question: Cc1c(C(CC(=O)O)c2ccc3c(c2)C(N2Cc4ccccc4O[C@@H](C)C2)CC3)ccc2c1nnn2C (stereo partly drawn) [Example 56, 3-(1,4-Dimethyl-1H-benzo[d][1,2,3]triazol-5-yl)-3-(3-((S)-2-methyl-2,3-dihydrobenzo[f][1,4]oxazepin-4(5H)-yl)-2,3-dihydro-1H-inden-5-yl)propanoic Acid, Formic Acid Salt] was tested. Which EC50 did it give?
Answer: 100 to 1000 nM

Question: Cn1nnc2cc(C(CC(=O)O)c3ccc4c(c3)C(N3Cc5cccnc5OC(C)(C)C3)CC4)ncc21 (stereo not shown) [Example 62, 3-(3-(2,2-Dimethyl-2,3-dihydropyrido[3,2-f][1,4]oxazepin-4(5H)-yl)-2,3-dihydro-1H-inden-5-yl)-3-(3-methyl-3H-[1,2,3]triazolo[4,5-c]pyridin-6-yl)propanoic Acid, Formic Acid Salt] was tested. Which EC50 did it give?
Answer: 1000 to 10000 nM

Question: Which EC50 does the source give for Cc1c(C(CC(=O)O)c2ccc3c(c2)C(N2Cc4ccccc4OC(C)(C)C2)CC3)ccc2c1nnn2C (stereo not shown) [Example 40, 3-(1,4-Dimethyl-1H-benzo[d][1,2,3]triazol-5-yl)-3-(3-(2,2-dimethyl-2,3-dihydrobenzo[f][1,4]oxazepin-4(5H)-yl)-2,3-dihydro-1H-inden-5-yl)propanoic Acid, Formic Acid Salt] here?
Answer: 1 to 10 nM

Question: Cc1c(C(CC(=O)O)c2ccc3c(c2)C(N2Cc4cccnc4O[C@H](C)C2)CC3)ccc2c1nnn2C (stereo partly drawn) [Example 61, 3-(1,4-Dimethyl-1H-benzo[d][1,2,3]triazol-5-yl)-3-(3-((R)-2-methyl-2,3-dihydropyrido[3,2-f][1,4]oxazepin-4(5H)-yl)-2,3-dihydro-1H-inden-5-yl)propanoic Acid, Formic Acid Salt] was tested. Which EC50 did it give?
Answer: 1000 to 10000 nM

Question: COc1cc(C(CC(=O)O)c2ccc3c(c2)C(N2Cc4ccccc4OC(C)(C)C2)CC3)c(C)c2nnn(C)c12 (stereo not shown) [Example 29, 3-(3-(2,2-Dimethyl-2,3-dihydrobenzo[f][1,4]oxazepin-4(5H)-yl)-2,3-dihydro-1H-inden-5-yl)-3-(7-methoxy-1,4-dimethyl-1H-benzo[d][1,2,3]triazol-5-yl)propanoic Acid, Formic Acid Salt] was tested. Which EC50 did it give?
Answer: < 1 nM

Question: For Cc1c(C(CC(=O)O)c2ccc3c(c2)C2C(CCN2C(=O)CC(C)(C)C)C3)ccc2c1nnn2C (stereo not shown) [Example 13, 3-(1,4-Dimethyl-1H-1,2,3-benzotriazol-5-yl)-3-[1-(3,3-dimethylbutanoyl)-1H,2H,3H,3aH,4H,8bH-indeno[1,2-b]pyrrol-7-yl]propanoic Acid], which EC50 is on record?
Answer: 1000 to 10000 nM
